Paper PMC9652372, “Glycolytic flux control by drugging phosphoglycolate phosphatase” (Nature Communications, 2022)
Values after ≈ are worked out from the molar mass of the structure shown. Values joined by “and” are separate entries in the source; they are usually repeats but may differ in a detail not shown here. Identical values can stand only once. Like-named read-outs stand apart in the source and are kept apart here.

Experiments:
murine PDXP/PGP hybrid = biological target: T1, murine PDXP/PGP hybrid (Mus musculus, UniProt P60487+Q8CHP8); assay: PG dephosphorylation by PDXP/PGP hybrid protein; assay type: biochemical
T1 construct: consisting of the PGP cap domain (amino acids 114–233) fused to the PDXP core domain; His6 (N, cleaved yes); made in house; host or cells: Escherichia coli BL21 (DE3), pETM11
T1 sequence (P60487 1-100): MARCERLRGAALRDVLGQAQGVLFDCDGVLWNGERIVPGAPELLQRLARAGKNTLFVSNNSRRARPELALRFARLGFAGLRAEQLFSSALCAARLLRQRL
T1 sequence (Q8CHP8 114-233): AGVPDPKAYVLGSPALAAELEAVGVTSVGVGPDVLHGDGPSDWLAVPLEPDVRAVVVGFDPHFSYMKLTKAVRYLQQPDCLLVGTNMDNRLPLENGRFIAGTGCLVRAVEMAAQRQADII
T1 sequence (P60487 208-292): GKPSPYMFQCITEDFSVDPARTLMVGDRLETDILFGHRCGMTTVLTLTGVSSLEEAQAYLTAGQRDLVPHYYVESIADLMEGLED
Procedure: After centrifugation, cells were resuspended in TNM-2 (100 mM triethanolamine, 500 mM NaCl, 20 mM imidazole, 5 mM MgCl2; pH 7.4). Cleared supernatants were loaded on a HisTrap HP nickel sepharose column in TNM-3 (50 mM triethanolamine, 500 mM NaCl, 20 mM imidazole, 5 mM MgCl2; pH 7.4), and His6-tagged proteins were eluted using a linear gradient of up to 50% TNM-4 (50 mM triethanolamine; 250 mM NaCl; 500 mM imidazole; 5 mM MgCl2; pH 7.4). Peak fractions were pooled, the His6-tag was cleaved, and untagged PDXP or PDXP/PGP was isolated, concentrated and further purified by size exclusion chromatography in TNM-5 (50 mM triethanolamine; 250 mM NaCl; 5 mM MgCl2; pH 7.4). […] Data were analyzed with GraphPad Prism 7.04.

PGP^WT = biological target: T2, PGP^WT (Mus musculus, UniProt Q8CHP8); assay: Differential scanning fluorimetry (Thermofluor); assay type: binding
T2 construct: His6 (N, cleaved yes); made in house; host or cells: Escherichia coli BL21 (DE3), pETM11, co-expressed with groES-groEL-tig
T2 sequence (Q8CHP8 1-321): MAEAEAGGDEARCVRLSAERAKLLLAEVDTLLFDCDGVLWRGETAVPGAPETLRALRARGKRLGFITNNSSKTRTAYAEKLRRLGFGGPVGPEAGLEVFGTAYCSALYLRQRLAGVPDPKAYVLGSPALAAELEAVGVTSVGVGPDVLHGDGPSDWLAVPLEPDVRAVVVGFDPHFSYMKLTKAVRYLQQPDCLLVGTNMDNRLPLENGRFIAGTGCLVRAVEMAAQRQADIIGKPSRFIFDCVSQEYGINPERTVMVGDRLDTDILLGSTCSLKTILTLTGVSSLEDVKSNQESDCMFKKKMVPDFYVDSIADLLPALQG

physchem = settings: organic solvent or mixture
murine PGP [1] = biological target: T3, murine PGP (Mus musculus, UniProt Q8CHP8); assay: biochemical
T3 sequence (Q8CHP8 1-321): T2 sequence (Q8CHP8 1-321)

murine PDXP = biological target: T4, murine PDXP (Mus musculus, UniProt P60487); assay: PDXP activity towards pyridoxal 5'-phosphate (PLP); settings: phosphatase PDXP; species M.m.; substrate PLP; n.s. = no significant inhibition detectable
T4 sequence (P60487 1-292): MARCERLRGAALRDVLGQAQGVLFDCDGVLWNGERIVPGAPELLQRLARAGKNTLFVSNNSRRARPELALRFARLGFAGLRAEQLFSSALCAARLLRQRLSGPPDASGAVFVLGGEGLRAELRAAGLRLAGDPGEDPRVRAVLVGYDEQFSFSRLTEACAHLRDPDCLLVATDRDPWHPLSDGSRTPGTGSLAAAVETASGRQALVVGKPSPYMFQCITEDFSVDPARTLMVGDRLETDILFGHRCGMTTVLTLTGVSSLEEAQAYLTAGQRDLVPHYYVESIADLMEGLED

murine PGP [2] = biological target: T3, murine PGP; assay: IC50 determination, murine PGP, pNPP dephosphorylation
PGP = biological target: T5, PGP (Mus musculus, UniProt Q8CHP8); assay: Steady state kinetics of PG dephosphorylation in presence of CP1-3
T5 sequence (Q8CHP8 1-321): T2 sequence (Q8CHP8 1-321)

[3] = PG dephosphorylation, increasing CP concentrations

COc1ccc(C(=O)Nc2ccc(Cc3ccc(NC(=O)c4ccc(OC)c(OC)c4)c(C(=O)O)c3)cc2C(=O)O)cc1OC [CP2]
remaining activity at 64 µM (murine PDXP/PGP hybrid; activity, control = 100, CP log[M] -4.19382): 17.6%
remaining activity at 32 µM (murine PDXP/PGP hybrid; activity, control = 100, CP log[M] -4.49485): 16%
remaining activity at 16 µM (murine PDXP/PGP hybrid; activity, control = 100, CP log[M] -4.79588): 23.7%
remaining activity at 4 µM (murine PDXP/PGP hybrid; activity, control = 100, CP log[M] -5.39794): 48.1%
remaining activity at 2 µM (murine PDXP/PGP hybrid; activity, control = 100, CP log[M] -5.69897): 55.7%
remaining activity at 1 µM (murine PDXP/PGP hybrid; activity, control = 100, CP log[M] -6): 80.9%
remaining activity at 0.5 µM (murine PDXP/PGP hybrid; activity, control = 100, CP log[M] -6.30103): 90.8%
remaining activity at […] (murine PDXP/PGP hybrid; activity, control = 100, CP log[M] -6.60206): 93.9%
remaining activity at 0.125 µM (murine PDXP/PGP hybrid; activity, control = 100, CP log[M] -6.90309): 94.7%
remaining activity at 0.0625 µM (murine PDXP/PGP hybrid; activity, control = 100, CP log[M] -7.20412): 87.8%
remaining activity at 0.015625 µM (murine PDXP/PGP hybrid; activity, control = 100, CP log[M] -7.80618): 101%
IC50 (murine PDXP/PGP hybrid; phosphatase PDXP/PGP, species M.m., substrate PG): 2570 ± 230 nM
TM (PGP^WT; Inhibitor 0.146484 µM): 66.4 °C
TM (PGP^WT; Inhibitor 0.292969 µM): 66.5 °C
TM (PGP^WT; Inhibitor 0.585938 µM): 66.5 °C
TM (PGP^WT; Inhibitor 1.17188 µM): 66.5 °C
TM (PGP^WT; Inhibitor 2.34375 µM): 66.6 °C
TM (PGP^WT; Inhibitor 4.6875 µM): 66.8 °C
TM (PGP^WT; Inhibitor 9.375 µM): 67.7 °C
TM (PGP^WT; Inhibitor 18.75 µM): 68.2 °C
TM (PGP^WT; Inhibitor 37.5 µM): 68.6 °C
TM (PGP^WT; Inhibitor 75 µM): 68.6 °C
TM (PGP^WT; Inhibitor 150 µM): 67.9 °C
increase in the maximal PGP melting temperature (PGP^WT; from 66.4 °C (control conditions)): 2.2 °
solubility (physchem): 15 mM (≈ 9220 µg/mL)
IC50 (murine PGP [1]): 1580 nM and 700 nM
IC50 (murine PDXP): n.s.
IC50 (murine PGP [2]): 4760 ± 1190 nM
remaining activity at 50 µM (murine PGP [2]; read-out: M.m PGP on pNPP, activity, control = 100.00, CP log[M] -4.30103): 28.4%
remaining activity at 25 µM (murine PGP [2]; read-out: M.m PGP on pNPP, activity, control = 100.00, CP log[M] -4.60206): 32.2%
remaining activity at 10 µM (murine PGP [2]; read-out: M.m PGP on pNPP, activity, control = 100.00, CP log[M] -5): 43.5%
remaining activity at 5 µM (murine PGP [2]; read-out: M.m PGP on pNPP, activity, control = 100.00, CP log[M] -5.30103): 58.6%
remaining activity at […] (murine PGP [2]; read-out: M.m PGP on pNPP, activity, control = 100.00, CP log[M] -5.60206): 63.7%
remaining activity at 1 µM (murine PGP [2]; read-out: M.m PGP on pNPP, activity, control = 100.00, CP log[M] -6): 94.7%
remaining activity at 0.5 µM (murine PGP [2]; read-out: M.m PGP on pNPP, activity, control = 100.00, CP log[M] -6.30103): 85.5%
remaining activity at […] (murine PGP [2]; read-out: M.m PGP on pNPP, activity, control = 100.00, CP log[M] -6.60206): 93.2%
remaining activity at 0.125 µM (murine PGP [2]; read-out: M.m PGP on pNPP, activity, control = 100.00, CP log[M] -6.90309): 91.7%
remaining activity at 0.0625 µM (murine PGP [2]; read-out: M.m PGP on pNPP, activity, control = 100.00, CP log[M] -7.20412): 105%
remaining activity at 0.03125 µM (murine PGP [2]; read-out: M.m PGP on pNPP, activity, control = 100.00, CP log[M] -7.50515): 94%
mode of PGP inhibition (PGP): competitive inhibitors
PGP activity (PGP; 1 µM CP2, PG 25 µM): 1.021 µmol Pi/min/mg and 0.7809 µmol Pi/min/mg and 1.201 µmol Pi/min/mg
PGP activity (PGP; 1 µM CP2, PG 50 µM): 2.343 µmol Pi/min/mg and 1.682 µmol Pi/min/mg and 2.403 µmol Pi/min/mg
PGP activity (PGP; 1 µM CP2, PG 100 µM): 4.865 µmol Pi/min/mg and 4.265 µmol Pi/min/mg and 4.986 µmol Pi/min/mg
PGP activity (PGP; 1 µM CP2, PG 200 µM): 9.31 µmol Pi/min/mg and 8.409 µmol Pi/min/mg and 9.7309 µmol Pi/min/mg
PGP activity (PGP; 1 µM CP2, PG 300 µM): 14.9605 µmol Pi/min/mg and 10.9951 µmol Pi/min/mg and 14.0593 µmol Pi/min/mg
PGP activity (PGP; 1 µM CP2, PG 400 µM): 18.0247 µmol Pi/min/mg and 16.763 µmol Pi/min/mg and 17.3037 µmol Pi/min/mg
PGP activity (PGP; 1 µM CP2, PG 500 µM): 19.8272 µmol Pi/min/mg and 20.5481 µmol Pi/min/mg and 19.4667 µmol Pi/min/mg
PGP activity (PGP; 1 µM CP2, PG 600 µM): 21.8099 µmol Pi/min/mg and 21.6296 µmol Pi/min/mg
PGP activity (PGP; 1 µM CP2, PG 700 µM): 22.7111 µmol Pi/min/mg and 24.1531 µmol Pi/min/mg and 23.6123 µmol Pi/min/mg
PGP activity (PGP; 1 µM CP2, PG 800 µM): 21.8099 µmol Pi/min/mg and 23.0716 µmol Pi/min/mg and 24.8741 µmol Pi/min/mg
PGP activity (PGP; 2 µM CP2, PG 25 µM): 0.7809 µmol Pi/min/mg and 0.7208 µmol Pi/min/mg and 0.9611 µmol Pi/min/mg
PGP activity (PGP; 2 µM CP2, PG 50 µM): 1.081 µmol Pi/min/mg and 1.682 µmol Pi/min/mg and 1.982 µmol Pi/min/mg
PGP activity (PGP; 2 µM CP2, PG 100 µM): 2.9433 µmol Pi/min/mg and 3.424 µmol Pi/min/mg and 3.784 µmol Pi/min/mg
PGP activity (PGP; 2 µM CP2, PG 200 µM): 6.247 µmol Pi/min/mg and 7.088 µmol Pi/min/mg and 7.028 µmol Pi/min/mg
PGP activity (PGP; 2 µM CP2, PG 300 µM): 7.39 µmol Pi/min/mg and 11.3555 µmol Pi/min/mg and 12.0765 µmol Pi/min/mg
PGP activity (PGP; 2 µM CP2, PG 400 µM): 12.7975 µmol Pi/min/mg and 13.6988 µmol Pi/min/mg and 14.4198 µmol Pi/min/mg
PGP activity (PGP; 2 µM CP2, PG 500 µM): 16.763 µmol Pi/min/mg and 16.4025 µmol Pi/min/mg
PGP activity (PGP; 2 µM CP2, PG 600 µM): 17.8444 µmol Pi/min/mg and 17.3037 µmol Pi/min/mg and 17.6642 µmol Pi/min/mg
PGP activity (PGP; 2 µM CP2, PG 700 µM): 19.2864 µmol Pi/min/mg and 19.1062 µmol Pi/min/mg
PGP activity (PGP; 2 µM CP2, PG 800 µM): 20.3679 µmol Pi/min/mg and 20.7284 µmol Pi/min/mg and 19.2864 µmol Pi/min/mg
PGP activity (PGP; 4 µM CP2, PG 50 µM): 1.502 µmol Pi/min/mg and 0.7809 µmol Pi/min/mg and 1.321 µmol Pi/min/mg
PGP activity (PGP; 4 µM CP2, PG 100 µM): 2.523 µmol Pi/min/mg and 1.742 µmol Pi/min/mg and 2.222 µmol Pi/min/mg
PGP activity (PGP; 4 µM CP2, PG 200 µM): 4.745 µmol Pi/min/mg and 4.565 µmol Pi/min/mg
PGP activity (PGP; 4 µM CP2, PG 300 µM): 8.4716 µmol Pi/min/mg and 6.669 µmol Pi/min/mg and 5.7679 µmol Pi/min/mg
PGP activity (PGP; 4 µM CP2, PG 400 µM): 10.8148 µmol Pi/min/mg and 9.012 µmol Pi/min/mg
PGP activity (PGP; 4 µM CP2, PG 500 µM): 11.1753 µmol Pi/min/mg and 11.8963 µmol Pi/min/mg and 10.8148 µmol Pi/min/mg
PGP activity (PGP; 4 µM CP2, PG 600 µM): 12.437 µmol Pi/min/mg and 12.9778 µmol Pi/min/mg
PGP activity (PGP; 4 µM CP2, PG 700 µM): 13.5185 µmol Pi/min/mg and 14.0593 µmol Pi/min/mg and 12.9778 µmol Pi/min/mg
PGP activity (PGP; 4 µM CP2, PG 800 µM): 13.3383 µmol Pi/min/mg and 13.879 µmol Pi/min/mg and 14.6 µmol Pi/min/mg
vmax (PGP; CP 1.0 µM): 49.7 ± 4.0 µmol/min/mg
vmax (PGP; CP 2.0 µM): 51.9 ± 5.9 µmol/min/mg
vmax (PGP; CP 4.0 µM): 36.9 ± 4.8 µmol/min/mg
effect on vmax (reduction) (PGP; [3]): without affecting vmax
increase of KM (PGP; [3]): ~ 3 fold
